Entries after “also recorded” stand apart in the source; their conditions may differ. Like-named read-outs stand apart in the source and are kept apart here.
Columns and labels:
[1] = tested on: estradiol (Ez); assay: Test (1) serum estradiol (Ez) reduction, subcutaneous administration, PMSG-treated rats, radioimmunoassay; type: in vivo, SD strain female rats; settings: for Ez-reducing effect: compared with the control group, in both cases of subcutaneous administration (50 mg/kg) and oral administration (100 mg/kg, Test (2)); for Ez concentration in serum (average): subcutaneous, 50 mg/kg, 3 hours after administration, PMSG-treated rats, 5 per group, control (HPC) 0.572
Experimental: (§1) In this Test Example, effects of administration of 6-OA and 6-enol ester compounds thereof on estradiol (Ez) reduction were examined.
20 SD strain female rats of 8-week old were used as test animals. They were divided into four groups each consisting of 5 rats. To all the rats was subcutaneously injected pregnant mare serum gonatropin (PMSG) in an amount of 100 IU/body once every other day (6 times in total). In the beforenoon of the next day of the final (6th) administration of PMSG, 0.5 ml of a solvent, 50 mg/kg of 6-OA, 50 mg/kg of 6-OAp and 50 mg/kg of 6-OAb were subcutaneously administered to group I (control group), group II, group III and group IV, respectively.
After 3 hours from the administration, the rats were subjected to abdomen opening under etherization and then to exsanguination from the main vein. The blood collected from each rat was subjected to serum separation, and the Ez in the serum was determined by radioimmunoassay.
A physiological saline solution containing 0.3% of hydroxy propyl cellulose (HPC) was used as the solvent. 6-OA, 6-OAp and 6-OAb were each suspended in the solvent in such a concentration that the administration amount of the resulting suspension per rat became 0.5 ml.

[2] = tested on: estradiol (Ez); assay: Test (2) serum estradiol (Ez) reduction, oral administration, PMSG-treated rats, radioimmunoassay; type: in vivo, SD strain female rats; settings: 100 mg/kg, 6 hours after administration, 5 per group, control (HPC) 0.522
Experimental: as §1
The type, age, number and grouping of test animals were the same as in Test (1).
All of the rats were subcutaneously injected with PMSG, in the same manner as in Test (1), in an amount of 100 IU/body once every other day (6 times in total).
Before noon of the next day of the final (6th) administration of PMSG, 0.5 ml of a solvent, 100 mg/kg of 6-OA, 100 mg/kg of 6-OAp and 100 mg/kg of 6-OAb were orally administered to group I (control group), group II, group III and group IV, respectively.
Aftr 6 hours from the administration, the rats were subjected to exsanguination. The blood collected from each rat was subjected to serum separation, and the Ez in the serum was determined by radioimmunoassay.
The solvent used was the same as in Test (1). 6-OA, 6-OAp and 6-OAb were each suspended in the solvent in such a concentration that the administration amount of the resulting suspension per rat became 0.5 ml.

[3] = tested on: aromatase (a steroidogenesis enzyme); settings: known; Japanese Patent Application Laid-Open Nos. 192794/1988, 131193/1989; cited from earlier work
[4] = animal toxicity tests (LD50)
[5] = tested on: experimental endometriosis; assay: effect on model rats of endometriosis (cysts in endometrium autoplanted under renal capsule); type: in vivo, SD strain female rats; settings: 100 mg/kg/day
Description: In this Test example, effect of administration of 6-OAp on model rats of endometriosis was examined.
SD strain female rats of 7-week old weighing 170-210 g were used as test animals. In these rats, an endometrial segment (about 5 mm×5 mm) was removed from the left uterine horn and autoplanted under the left renal capsule, and formation of cysts in the transplanted endometrium was examined. Those rats which had developed cysts of 0.5-2.0 mm in height in the transplanted endometrium, were used for test.
The rats were divided into three groups. To group I (control group) was orally administered a physiological saline solution containing 0.3% of hydroxy propyl cellulose (HPC) daily in an amount of 0.5 ml/day. To group II was orally administered 6-OAp daily in an amount of 100 mg/kg/day. In this case, 6-OAp was suspended in a physiological saline solution containing 0.3% of HPC in such a concentration that the administration amount of the resulting suspension per rat became 0.5 ml. Group III (positive control) was subjected to ovary removal.
Each rat was subjected to abdomen opening after 3 weeks from the start of administration or after the ovary removal and examined for the presence of cysts.
Chi-square test was used for the statistical analysis of the test data obtained.

[6] = cited from earlier work

Structure (SMILES) | Ez-reducing effect [1] | Ez concentration in serum (average) [1] | Ez concentration in serum (average) [2] | further results
C[C@]12CCC(=O)C=C1C(=O)C[C@@H]1[C@@H]2CC[C@]2(C)C(=O)CC[C@@]12O [6-OA, 14α-Hydroxy-4-androstene-3,6,17-trione] | strong Ez-reducing effect | 0.262 ng/mL | 0.291 ng/mL | aromatase-inhibitory activity [3]: strong aromatase-inhibitory activity; toxicity ([4]; animal tests): very low toxicity; LD50 ([4]; in vivo): > 2000 mg/kg
C[C@]12CCC(=O)C=C1C(OC(=O)c1ccccc1)=C[C@@H]1[C@@H]2CC[C@]2(C)C(=O)CC[C@@]12O [6-OAb] | strong Ez-reducing effect | 0.390 ng/mL | 0.422 ng/mL | –
CCC(=O)OC1=C[C@@H]2[C@H](CC[C@]3(C)C(=O)CC[C@@]23O)[C@@]2(C)CCC(=O)C=C12 [6-OAp, 14α-Hydroxy-androsta-4,6-diene-3,17-dione-6-propionate] | strong Ez-reducing effect; also recorded: stronger Ez-reducing effect than the 6-OA group and the 6-OAb group | 0.230 ng/mL | 0.226 ng/mL | Disappearance (of cysts) ([5]; oral, 3 weeks, control 9%, ovary-removed 100, significant at 5% level relative to control group (Chi-square)): 41%; Cysts absent ([5]; oral, 3 weeks, total 22 rats, control 2 of 22, significant at 5% level relative to control (Chi-square)): 9 rats; Cysts present ([5]; oral, 3 weeks, total 22 rats, control 20 of 22): 13 rats; effect on experimental endometriosis of rats ([5]; orally administered daily for 3 weeks): effective
CCNC(=O)[C@@H]1CCCN1C(=O)[C@H](CCCNC(=N)N)NC(=O)[C@H](CC(C)C)NC(=O)[C@@H](COC(C)(C)C)NC(=O)[C@H](Cc1ccc(O)cc1)NC(=O)[C@H](CO)NC(=O)[C@H](Cc1c[nH]c2ccccc12)NC(=O)[C@H](Cc1cnc[nH]1)NC(=O)[C@@H]1CCC(=O)N1 [buserelin] | – | – | – | side effects ([6]; treatment of endometriosis, prior art): hyposexuality, hot flushes and the like
C#C[C@]1(O)CC[C@H]2[C@@H]3CCC4=Cc5oncc5C[C@]4(C)[C@H]3CC[C@@]21C [danazol] | – | – | – | side effects ([6]; in vivo): dyshepatia, masculinization and the like

Source: US5166200A, “Treatment of endometriosis” (Snow Brand Milk Products Company, Limited, priority 1990, dated 1992)
